Reference: PMC8119466, “A screen of FDA-approved drugs identifies inhibitors of protein tyrosine phosphatase 4A3 (PTP4A3 or PRL-3)” (Scientific Reports, 2021)
Structures can show the parent of a compound that is named as a salt. Where two headings read alike, the source gives them in different places.

How the values were obtained:
Assay type in all cases: biochemical
recombinant PRL-1 = biological target: T1, recombinant PRL-1 (Homo sapiens, UniProt Q93096); assay: In vitro phosphatase assay (DiFMUP hydrolysis), PRL-1; note: test concentration or dose not given here
T1 construct: 6xHis (N, cleaved yes); made in house; host or cells: E. coli One Shot BL21 Star
T1 sequence (Q93096 1-173): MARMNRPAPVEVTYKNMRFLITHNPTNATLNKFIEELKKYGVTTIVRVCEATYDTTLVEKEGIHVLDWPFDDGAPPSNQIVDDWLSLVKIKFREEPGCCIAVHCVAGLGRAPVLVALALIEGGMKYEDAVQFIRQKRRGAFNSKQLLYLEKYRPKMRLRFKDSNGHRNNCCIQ

recombinant PRL-3 = biological target: T2, recombinant PRL-3 (Homo sapiens, UniProt O75365); assay: In vitro phosphatase assay (DiFMUP hydrolysis), PRL-3; note: test concentration or dose not given here
T2 construct: 6xHis (N, cleaved yes); made in house; host or cells: E. coli One Shot BL21 Star
T2 sequence (O75365 whole entry): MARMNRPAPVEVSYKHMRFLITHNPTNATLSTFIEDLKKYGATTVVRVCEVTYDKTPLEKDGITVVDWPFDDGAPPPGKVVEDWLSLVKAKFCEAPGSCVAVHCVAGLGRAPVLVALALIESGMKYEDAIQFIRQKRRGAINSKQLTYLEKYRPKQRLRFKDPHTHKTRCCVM

recombinant PRL-2 = biological target: T3, recombinant PRL-2 (Homo sapiens, UniProt Q12974); assay: In vitro phosphatase assay (DiFMUP hydrolysis), PRL-2;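 note: PRL-2 activity read as DiFMUP hydrolysis after 20 min at room temperature with drug, enzyme first pre-reduced at 4 °C for 20 min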
T3 construct: 6xHis (N, cleaved yes); made in house; host or cells: E. coli One Shot BL21 Star
T3 sequence (Q12974 1-167): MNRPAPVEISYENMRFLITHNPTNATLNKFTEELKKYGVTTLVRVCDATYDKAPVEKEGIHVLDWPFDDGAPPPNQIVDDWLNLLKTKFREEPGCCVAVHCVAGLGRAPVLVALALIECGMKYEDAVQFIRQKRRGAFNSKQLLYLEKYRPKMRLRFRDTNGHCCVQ

[1] = FDA-approved drug screen, compared to DMSO

SMILES | % Phosphatase Activity (compared to DMSO) PRL-1 (recombinant PRL-1; [1]) | % Phosphatase Activity (compared to DMSO) PRL-3 (recombinant PRL-3; [1]) | % Phosphatase Activity (compared to DMSO) PRL-2 (recombinant PRL-2; [1]) | % Phosphatase Activity (compared to DMSO) PRL-1 (recombinant PRL-1) | % Phosphatase Activity (compared to DMSO) PRL-3 (recombinant PRL-3) | % Phosphatase Activity (compared to DMSO) PRL-2 (recombinant PRL-2)
C[n+]1ccccc1/C=N/O.[Cl-] [Pralidoxime (chloride)] | 99% | 105% | 91% | – | – | –
CCCN[C@H]1CCc2nc(N)sc2C1 [Pramipexole dihydrochloride monohydrate] | – | – | – | 87% | 90% | 98%
CCCN[C@H]1CCc2nc(N)sc2C1 [Pramipexole] | – | – | – | 109% | 72% | 106%
CCCCOc1ccc(OCCCN2CCOCC2)cc1 [Pramoxine HCl] | 82% | 74% | 91% | – | – | –
O=C(Nc1cccc2c(=O)cc(-c3nnn[nH]3)oc12)c1ccc(OCCCCc2ccccc2)cc1 [Pranlukast] | 147% | 54% | 205% | – | – | –
CC(C(=O)O)c1ccc2c(c1)Cc1cccnc1O2 (stereo not drawn) [Pranoprofen] | 97% | 92% | 87% | – | – | –
CC(=O)Oc1cc2c(s1)CCN(C(C(=O)C1CC1)c1ccccc1F)C2 (stereo not drawn) [Prasugrel Hydrochloride] | 92% | 87% | 109% | – | – | –
CC(=O)Oc1cc2c(s1)CCN(C(C(=O)C1CC1)c1ccccc1F)C2 (stereo not drawn) [Prasugrel] | 91% | 79% | 88% | – | – | –
CC[C@H](C)C(=O)O[C@H]1C[C@H](O)C=C2C=C[C@H](C)[C@H](CC[C@@H](O)C[C@@H](O)CC(=O)O)[C@H]21 [Pravastatin sodium] | 93% | 93% | 113% | – | – | –
O=C(C1CCCCC1)N1CC(=O)N2CCc3ccccc3C2C1 (stereo not drawn) [Praziquantel] | 102% | 73% | 88% | – | – | –
COc1cc2nc(N3CCN(C(=O)c4ccco4)CC3)nc(N)c2cc1OC [Prazosin HCl] | 460% | 263% | 435% | – | – | –
CC(=O)OCC(=O)[C@@]1(O)CC[C@H]2[C@@H]3CCC4=CC(=O)C=C[C@]4(C)[C@H]3[C@@H](O)C[C@@]21C [Prednisolone Acetate] | 105% | 80% | 102% | – | – | –
C[C@]12C=CC(=O)C=C1CC[C@@H]1[C@@H]2[C@@H](O)C[C@@]2(C)[C@H]1CC[C@]2(O)C(=O)CO [Prednisolone] | 89% | 103% | 99% | – | – | –
C[C@]12C=CC(=O)C=C1CC[C@@H]1[C@@H]2C(=O)C[C@@]2(C)[C@H]1CC[C@]2(O)C(=O)CO [Prednisone] | 98% | 80% | 91% | – | – | –
CC(=O)[C@H]1CC[C@H]2[C@@H]3CC=C4C[C@@H](O)CC[C@]4(C)[C@H]3CC[C@]12C [Pregnenolone] | 89% | 88% | 101% | – | – | –
CCCNC(C)C(=O)Nc1ccccc1C (stereo not drawn) [Prilocaine] | 97% | 78% | 107% | – | – | –
CCC1(c2ccccc2)C(=O)NCNC1=O [Primidone] | 84% | 79% | 93% | – | – | –
CCCC(C(=O)OCCN(CC)CC)(c1ccccc1)c1ccccc1 [Proadifen HCl] | 94% | 105% | 106% | – | – | –
